Source: patent KR20110129297A, “양친매성 갈롤 유도체를 유효성분으로 포함하는 항균제조성물” (전남대학교산학협력단, priority 2010, dated 2011)
In brackets after ≈: the same amount, converted by molar mass. Entries after “also recorded” stand apart in the source; their conditions may differ. Like-named read-outs stand apart in the source and are kept apart here.

What was measured:
[1] = cited master's thesis / KR 2009066135 A; cited from earlier work
[2] = tested on: Helicobacter pylori [헬리코박터 파일로리]; test: Paper disc growth inhibition zone, Helicobacter pylori; format: cell-based; conditions: for zone of inhibition at 5 µmol/disc: Helicobacter pylori, read-out: diameter of growth inhibition zone
[3] = no test in this patent; mouse allergy test of urushiol derivatives cited (b4); cited from earlier work
[4] = tested on: food spoilage bacteria and pathogens [식품부패균 및 병원성균]; test: Paper disc growth inhibition zone, food spoilage bacteria and pathogens (9 strains); format: cell-based; conditions: 5 μmol per disc, solid medium, 12-16 h at 37, 30 or 25 °C depending on strain
[5] = tested on: cells causing lung cancer or stomach cancer [폐암이나 위암을 일으키는 세포]; conditions: background statement; cited from earlier work
S. aureus = test: Minimum inhibitory concentration, Staphylococcus aureus; format: cell-based; conditions: 37 °C, 12-16 h, inoculum 10^5-10^7 cfu/mL, read-out: minimum inhibition concentration (MIC)
[6] = tested on: food spoilage bacteria and pathogens [식품부패균 및 병원성균]; test: Minimum inhibitory concentration, food spoilage bacteria and pathogens (9 strains); format: cell-based; conditions: liquid dilution 1000-4 μg/mL
[7] = paper disc, 5 μmol per disc, CO2 incubator 37 °C, 10% CO2, 95% humidity

SMILES	zone of inhibition at 5 µmol/disc [2, 7] [mm]	antimicrobial activity (growth inhibition zone), in words [4]	other results
CCCCCc1cccc(O)c1O [PC, 3-pentylcatechol]	31.5 ± 0.5	–	antimicrobial activity, in words [1]: 강한 항균활성을 보였던; allergenicity, in words [3]: 알러지 비유발성
CN(C)[C@@H]1C(O)=C(C(N)=O)C(=O)[C@@]2(O)C(O)=C3C(=O)c4c(O)cccc4[C@@](C)(O)[C@H]3C[C@@H]12 [테트라사이클린, tetracycline]	9	–	–
CCCCCCCCCCCCCCCc1ccc(O)c(O)c1O [PDG, 4-pentadecyl-1,2,3-benzenetriol]	–	전혀 항균활성을 보이지 않았다	zone of inhibition at 5 µmol/disc [2]: 0 mm
CCn1cc(C(=O)O)c(=O)c2ccc(C)nc21 [날리디식 에시드, nalidixic acid]	11 ± 0.2	–	–
CCCCCCCCCCCCCCCCCCCCc1ccc(O)c(O)c1O [EG, 4-eicosyl-1,2,3-benzenetriol]	0	전혀 항균활성을 보이지 않았다	–
CC[C@H]1OC(=O)[C@H](C)[C@@H](O[C@H]2C[C@@](C)(OC)[C@@H](O)[C@H](C)O2)[C@H](C)[C@@H](O[C@@H]2O[C@H](C)C[C@H](N(C)C)[C@H]2O)[C@](C)(O)C[C@@H](C)C(=O)[C@H](C)[C@@H](O)[C@]1(C)O [에리스로마이신, erythromycin]	7	–	–
Oc1cccc(O)c1O [G, pyrogallol]	0	매우 약한 항균활성을 보였으며	inhibition of cancer cell growth, in words [5]: 폐암이나 위암을 일으키는 세포의 생장을 억제시키는 항암작용에도 효과가 있음
CC1(C)S[C@@H]2[C@H](NC(=O)[C@H](N)c3ccccc3)C(=O)N2[C@H]1C(=O)O [앰피실린, ampicillin]	7	–	–
CCCCCCCCCCc1ccc(O)c(O)c1O [DG, 4-decyl-1,2,3-benzenetriol]	7	–	–
O=C(O)c1ccccc1 [벤조익 에시드, benzoic acid]	–	–	MIC (S. aureus): 250 µM (≈ 30.5 µg/mL)
CCCCCc1ccc(O)c(O)c1O [PG, 4-pentyl-1,2,3-benzenetriol]	26.7 ± 0.6	가장 강한 항균활성을 보였다; also recorded: PC와 비슷하거나 그보다 우수한 항균활성을 보였다	antimicrobial activity (growth inhibition zone), in words ([2]; paper disc, 5 μmol per disc, compared with other gallol derivatives): 가장 강한 항균활성을 보였다; allergenicity, in words [3]: 알러지 비유발성; antimicrobial activity by minimum inhibition concentration, in words [6]: 최소저해농도 결과에 있어서 뛰어난 항균활성을 나타내지 않았다; also recorded: 측쇄가 없는 G보다는 PG가 더 낮은 농도에서 활성을 보였다
